Data: ChEMBL document CHEMBL4229334, “Fluoroquinolone derivatives and their anti-tubercular activities” (Eur J Med Chem, 2018)
≈ marks a conversion by molar mass, not a printed value.

Legend:
Format in all cases: functional
[1] = system: Mycobacterium tuberculosis; test: Antitubercular activity against rifampicin-resistant Mycobacterium tuberculosis after 21 days by two fold agar dilution method; details: 504 h
[2] = system: Mycobacterium tuberculosis; test: Potency index, ratio of MIC for isoniazid to MIC for test compound for antitubercular activity against rifampicin-resistant Mycobacterium tuberculosis after 21 days by two fold agar dilution method
[3] = system: Mycobacterium tuberculosis; test: Potency index, ratio of MIC for LVFX to MIC for test compound for antitubercular activity against rifampicin-resistant Mycobacterium tuberculosis after 21 days by two fold agar dilution method
[4] = system: Mycobacterium tuberculosis; test: Potency index, ratio of MIC for rifampicin to MIC for test compound for antitubercular activity against rifampicin-resistant Mycobacterium tuberculosis after 21 days by two fold agar dilution method
[5] = system: Mycobacterium tuberculosis; test: Potency index, ratio of MIC for GTFX to MIC for test compound for antitubercular activity against rifampicin-resistant Mycobacterium tuberculosis after 21 days by two fold agar dilution method
[6] = system: Mycobacterium tuberculosis; test: Antibacterial activity against multidrug resistant Mycobacterium tuberculosis ATTC 27294 by Alamar Blue assay
[7] = system: Mycobacterium tuberculosis; test: Antibacterial activity against multidrug resistant Mycobacterium tuberculosis after 7 days by two fold dilution assay; details: 168 h

| Compound | MIC [6] | MIC [7] | other results |
| --- | --- | --- | --- |
| C[C@H]1COc2c(N3C[C@H]4CCCN[C@H]4C3)c(F)cc3c(=O)c(C(=O)O)cn1c23 |  |  | MIC [1]: 0.2 to 1.7 µg/mL (≈ 0.516 to 4.39 µM); Ratio [2]: >=2.7 - 250; Ratio [3]: >=2.7 - 250; Ratio [4]: >=2.7 - 250; Ratio [5]: >=2.7 - 250 |
| O=C(O)c1cn(C2CC2)c2cc(N3CCNCC3)c(F)cc2c1=O [CIPROFLOXACIN] | 0.1 to 0.6 µg/mL (≈ 0.302 to 1.81 µM) |  |  |
| COc1c(N2CCNC(C)C2)c(F)cc2c(=O)c(C(=O)O)cn(C3CC3)c12 (stereo not given) [GATIFLOXACIN] | 0.1 to 0.6 µg/mL (≈ 0.266 to 1.6 µM) |  |  |
| NNC(=O)c1ccncc1 [ISONIAZID] |  | > 128 µg/mL |  |
| COc1c(N2C[C@@H]3CCCN[C@@H]3C2)c(F)cc2c(=O)c(C(=O)O)cn(C3CC3)c12 [MOXIFLOXACIN] | 0.1 to 0.6 µg/mL (≈ 0.249 to 1.49 µM) |  |  |
| CO[C@H]1/C=C/O[C@@]2(C)Oc3c(C)c(O)c4c(O)c(c(/C=N/N5CCN(C)CC5)c(O)c4c3C2=O)NC(=O)/C(C)=C\C=C\[C@H](C)[C@H](O)[C@@H](C)[C@@H](O)[C@@H](C)[C@H](OC(C)=O)[C@@H]1C [RIFAMPIN] |  | 32 µg/mL (≈ 38.9 µM) |  |
